pIC50: −log10 of the molar value. Strand notation (5' to 3'): a small letter for the sugar, then the base; units joined by * are phosphorothioate-linked, units joined directly phosphodiester-linked; [ ] holds rarer units or linkages, { } end groups; capitals alone tell only the bases. [ms] = mesyl phosphoramidate linkage; e = 2'-O-(2-methoxyethyl) (MOE); [5mC] = 5-methylcytosine; d = 2'-deoxy (DNA)
Assays:
human APOE RNA [1] = experiment: Dose-dependent inhibition of human APOE RNA in HepG2 cells, electroporation, 24 hours (Example 6); assay type: cell-based
Outline: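 HepG2 cells, 50,000 per well, electroporated with various oligonucleotide concentrations. APOE RNA measured with primer probe set RTS3073, normalized to GAPDH (RTS104), expressed as % of untreated control; IC50 then calculated.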

human APOE RNA [2] = experiment: Activity in APOE 1549 knock-in mice, single ICV bolus, 2 weeks (Example 7); assay type: in vivo; details: single ICV bolus of 300 μg, two weeks post treatment, Table 17
Procedure: Modified oligonucleotides described above were tested in APOE knock-in mice.
APOE knock-in mice (model 41549) were obtained from Taconic Biosciences. APOE knock-in mice were divided into groups of 2 mice each. Each mouse received a single intracerebroventricular (ICV) bolus of 300 μg of modified oligonucleotide. A group of 4 mice received a single ICV bolus with PBS as a negative control.
Two weeks post treatment, mice were sacrificed and RNA was extracted from cortical brain tissue and spinal cord for quantitative real-time RT-PCR analysis of RNA expression of APOE using primer probe set RTS3073 (described herein above). APOE RNA levels were normalized to mouse Ppia. Mouse Ppia was amplified using primer probe set m_cyclo24 (forward sequence TCGCCGCTTGCTGCA, designated herein as SEQ ID NO: 16; reverse sequence ATCGGCCGTGATGTCGA, designated herein as SEQ ID NO: 17; probe sequence […], designated herein as SEQ ID NO: 18). Results are presented as percent human APOE RNA relative to the amount of human APOE RNA in PBS treated animals, (% control). Each experiment is identified in separate tables below.

human APOE RNA [3] = experiment: Activity in APOE C57BL/6NTac-Apoeem7250 knock-in mice, single ICV bolus, 2 weeks (Example 9); assay type: in vivo; details: single ICV bolus 300 μg
Procedure: Modified oligonucleotides described above were tested in the APOE knock-in mouse model C57BL/6NTac-Apoeem7250_B-A02(APOE)Tac, a heterozygous APOE mouse model. APOE knock-in mice used in this study express the full-length human APOE gene knocked into the mouse locus. Humanization of APOE gene was done via CRISPR/Cas-9-mediated gene editing, allowing for generation of a model with constitutive expression of human APOE gene. Targeting strategy was based on NCBI transcripts NM_009696.4 (mouse) and NM_000041.4 (human). Mouse genomic sequence from exon 1 to exon 4 (including the 5′ and 3′ UTRs) was replaced with the human counterpart from 141 bp upstream of exon 1 to 28 bp downstream of exon 4. A plasmid allowing expression of Cas9 mRNA, specific gRNA, and the puromycin resistance cassette, and a plasmid containing the homology regions of the mouse APOE gene, and the replaced human region were co-transfected into the Taconic Biosciences C57BL/6N Tac ES cell line. Homologous recombination clones were isolated using positive puromycin selection, and humanized allele was obtained after Cas9-mediated gene editing. C57BL/6NTac-Apoeem7250_B-A02(APOE)Tac mice were used in the in vivo experiments described below.
APOE C57BL/6NTac-Apoeem7250 knock-in mice were divided into groups of 3 mice each. Each mouse received a single ICV bolus of 300 μg of modified oligonucleotide. A group of 3 mice received a single ICV bolus with PBS as a negative control.
(§1) Two weeks post treatment, mice were sacrificed and RNA was extracted from cortical brain tissue and spinal cord for quantitative real-time RT-PCR analysis of RNA expression of APOE using human primer probe set RTS3073 (described herein above). APOE RNA levels were normalized to mouse Ppia. Mouse Ppia was amplified using primer probe set m_cyclo24 (described herein above). Results are presented as percent human APOE RNA relative to the amount of human APOE RNA in PBS treated animals, (% control).

human APOE RNA [4] = experiment: Activity in APOE C57BL/6NTac-Apoeem7250 knock-in mice, single ICV bolus, 4 weeks (Example 10); assay type: in vivo; details: C57BL/6NTac-Apoeem7250 knock-in mice, single ICV bolus 300 μg
Outline: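 Knock-in mice (2–4 per group) received one 300 μg ICV bolus of oligonucleotide or PBS. After four weeks, human APOE RNA in cortex and spinal cord measured by RT-qPCR (primer probe set RTS3073), normalized to mouse Ppia, expressed as % of PBS controls.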

human APOE RNA [5] = experiment: Activity in APOE C57BL/6NTac-Apoeem7250 knock-in mice, single ICV bolus, 8 weeks (Example 11); assay type: in vivo; details: single ICV bolus 300 μg, 8 weeks post treatment, normalized to mouse Ppia
Outline: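 Human APOE knock-in C57BL/6NTac mice given one ICV bolus of 300 μg oligonucleotide; PBS-dosed group as control. At 8 weeks, cortex and spinal cord RNA measured by qRT-PCR (human probe RTS3073), normalized to mouse Ppia, expressed as % of PBS control.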

human APOE RNA [6] = experiment: Activity in APOE C57BL/6NTac-Apoeem7250 knock-in mice, single ICV bolus, 16 weeks (Example 12); assay type: in vivo; details: single ICV bolus 300 μg, 16 weeks post treatment, normalized to mouse Ppia
Outline: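 Knock-in mice (3-4 per group) received one ICV bolus of 300 μg oligonucleotide, PBS as control. After 16 weeks, human APOE RNA in cortex and spinal cord measured by RT-qPCR, normalized to mouse Ppia, and reported as % of PBS control.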

human APOE RNA [7] = experiment: Activity in APOE 1549 knock-in mice, single ICV bolus, 4 weeks (Example 8); assay type: in vivo; details: n = 2, single ICV bolus of 300 μg, four weeks post treatment, Table 18
Procedure: Modified oligonucleotides described above were tested in the 1549 APOE knock-in mouse model described above.
APOE knock-in mice were divided into groups of either 2 or 6 mice each as described in the tables below. Each mouse received a single intracerebroventricular (ICV) bolus of 300 μg of modified oligonucleotide. A group of either 3 or 6 mice received a single ICV bolus with PBS as a negative control.
as §1, with “Four” for “Two”, “using” for “using human”, “control). Each experiment is identified in separate tables below.” for “control).”

human APOE RNA [8] = experiment: Activity in APOE C57BL/6NTac-Apoeem7250 knock-in mice, single ICV bolus, 20 weeks (Example 13); assay type: in vivo; details: single ICV bolus 300 μg, 20 weeks post treatment, normalized to mouse Ppia
Outline: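 Knock-in mice (n=4) given a single ICV bolus of 300 μg oligonucleotide, PBS as control. After 20 weeks, human APOE RNA in cortex and spinal cord measured by RT-qPCR, normalized to mouse Ppia, expressed as % of PBS-treated animals.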

| Substance | pIC50 (human APOE RNA [1]) | APOE RNA (% UTC) (human APOE RNA [1]; 5 nM) | APOE RNA (% UTC) (human APOE RNA [1]; 13 nM) | APOE RNA (% UTC) (human APOE RNA [1]; 33 nM) | APOE RNA (% UTC) (human APOE RNA [1]; 82 nM) | APOE RNA (% UTC) (human APOE RNA [1]; 205 nM) | APOE RNA (% UTC) (human APOE RNA [1]; 512 nM) | APOE RNA (% UTC) (human APOE RNA [1]; 1,280 nM) | APOE RNA (% UTC) (human APOE RNA [1]; 3,200 nM) | APOE RNA (% UTC) (human APOE RNA [1]; 8,000 nM) | APOE RNA (% UTC) (human APOE RNA [1]; 20,000 nM) | APOE RNA (% control) Cortex (human APOE RNA [7]) [% control] | APOE RNA (% control) Spinal Cord (human APOE RNA [7]) [% control] | APOE RNA (% control) Cortex (human APOE RNA [8]) [% control] | APOE RNA (% control) Spinal Cord (human APOE RNA [8]) [% control] | other results |
| --- | --- | --- | --- | --- | --- | --- | --- | --- | --- | --- | --- | --- | --- | --- | --- | --- |
| 1693102: 6-10-4 MOE gapmer CTTGGTGAATCTTTATTAAA, linkages ssssoszzzssssszssss (e[5mC]*eT*eT*eG*eGeT*dG[ms]dA[ms]dA[ms]dT*d[5mC]*dT*dT*dT*dA[ms]dT*eT*eA*eA*eA) [compound 1693102] | 5.93 | 89 | 95 | 87 | 92 | 80 | 64 | 48 | 32 | 22 | 10 |  |  |  |  | APOE RNA (% control) Cortex (human APOE RNA [2]; cortex): 60 % control; APOE RNA (% control) Spinal Cord (human APOE RNA [2]; spinal cord): 45 % control; APOE RNA (% control) Cortex (human APOE RNA [3]; Cortex): 51 % control; APOE RNA (% control) Spinal Cord (human APOE RNA [3]; Spinal Cord): 51 % control; APOE RNA (% control) Cortex (human APOE RNA [4]; 4 weeks (Table 21)): 61 % control; APOE RNA (% control) Cortex (human APOE RNA [4]; 4 weeks (Table 22)): 55 % control; APOE RNA (% control) Spinal Cord (human APOE RNA [4]; 4 weeks (Table 21)): 48 % control; APOE RNA (% control) Spinal Cord (human APOE RNA [4]; 4 weeks (Table 22)): 72 % control; APOE RNA (% control) Cortex (human APOE RNA [5]; cortex): 58 % control; APOE RNA (% control) Spinal Cord (human APOE RNA [5]; spinal cord): 43 % control; APOE RNA (% control) Cortex (human APOE RNA [6]; cortex): 69 % control; APOE RNA (% control) Spinal Cord (human APOE RNA [6]; spinal cord): 41 % control |
| 1736525: 6-10-4 MOE gapmer CTTGGTGAATCTTTATTAAA, linkages sooosszzsssssssssss (e[5mC]*eTeTeGeG*eT*dG[ms]dA[ms]dA*dT*d[5mC]*dT*dT*dT*dA*dT*eT*eA*eA*eA) [compound 1736525] | 5.89 | 101 | 100 | 106 | 113 | 70 | 69 | 37 | 42 | 22 | 7 | 35 | 41 | 71 | 118 |  |
| 1736523: 6-10-4 MOE gapmer CTTGGTGAATCTTTATTAAA, linkages ssoooszzssssssssoss (e[5mC]*eT*eTeGeGeT*dG[ms]dA[ms]dA*dT*d[5mC]*dT*dT*dT*dA*dT*eTeA*eA*eA) [compound 1736523] | 6.17 | 97 | 114 | 108 | 79 | 78 | 47 | 29 | 39 | 5 | 4 | 42 | 34 | 73 | 44 |  |
| 1736526: 6-10-4 MOE gapmer CTTGGTGAATCTTTATTAAA, linkages ssoooszzsssssssssss (e[5mC]*eT*eTeGeGeT*dG[ms]dA[ms]dA*dT*d[5mC]*dT*dT*dT*dA*dT*eT*eA*eA*eA) [compound 1736526] | 5.94 | 89 | 114 | 100 | 85 | 71 | 51 | 58 | 28 | 25 | 18 | 35 | 42 | 67 | 68 |  |
| 1736527: 6-10-4 MOE gapmer CTTGGTGAATCTTTATTAAA, linkages sssooozzsssssssssss (e[5mC]*eT*eT*eGeGeTdG[ms]dA[ms]dA*dT*d[5mC]*dT*dT*dT*dA*dT*eT*eA*eA*eA) [compound 1736527] | 5.80 | 104 | 108 | 96 | 97 | 92 | 63 | 37 | 37 | 34 | 23 | 37 | 54 | 64 | 58 |  |
